The subject of assay [1] is serum-free floating CHO DP-12. The experiment in a line: Protein production test on AGK and GPP in floating cell system. The format is cell-based. The following applies: AGK 3.95 mM, GPP 4.40 mM + medium supplemented with vitamins and the like, ELISA. The method, then:
Peptides having the sequences of Ala-Gly-Lys (AGK) and Gly-Pro-Pro (GPP) were synthesized to prepare peptide solutions of 5.53 mM of Ala-Gly-Lys (AGK) and 6.16 mM of Gly-Pro-Pro (GPP).
5 mL of each of a basal medium, a medium supplemented with vitamins and the like (basal medium +a component supplemented with vitamins and the like), and each peptide solution was added to each well of a 24-well (Deep well) cassette of Micro-24 Bioreactor System (manufactured by Nihon Pall Corporation) to perform culture overnight under the conditions of 37° C., pH 7, and 650 rpm. On the next day, pH calibration was performed, and thereafter 2 mL of the cell suspension prepared at 3.5×10^5 cells/mL was added to each well of the 24-well (Deep well) cassette, seeded such that the cell density of the floating cells was 1×10^5 cells/mL (7 mL/well), and cultured in the following evaluation medium under culture conditions of 37° C., pH 7, 650 rpm, and dissolved oxygen of 30%.
• Basal medium • Medium supplemented with vitamins and the like (basal medium+component supplemented with vitamins and the like) • AGK (3.95 mM)+medium supplemented with vitamins and the like • GPP (4.40 mM)+medium supplemented with vitamins and the like
As a culture medium, a basal medium in which 200 nM of methotrexate, 10 μg/mL of insulin, 5.5 μg/mL of transferrin, 6.7 ng/mL of sodium selenite, 10 μL/mL of Anti-Clumping Agent, and 10 μL/mL of 10% Pluronic F68 were blended in a DMEM/F12 culture medium (Gibco) was used.
As the floating cells used, serum-free floating CHO DP-12 obtained by acclimating CHO DP-12 (ATCC, Cat. No. CRL-12445) to serum-free flotation and subculturing using a 100 mL volume Erlenmeyer flask and with a shaking culture device (Custom Bio Shaker CO2-BR-43FL, TAITEC CORPORATION) under the culture conditions of 37° C., 5% CO2, and a stirring speed of 125 rpm was used.
After the third day of culture, 150 μL of the culture medium was recovered in a 1.5 mL tube from each well of the 24-well (Deep well) cassette to perform a centrifugation operation (5,000 rpm, for 5 minutes), and the supernatant was recovered to measure the amount of produced protein by ELISA.

In another assay the test system is CHO-K1. The experiment in a line: Cell growth test of each peptide on coating agent for 3 days. The format is cell-based. On the set-up: Viability, 1 / Viability, 2 / Viability, 3 / Viability, Average: unit not given here. The note with it: 2.1 mM Gly-Glu-Lys, poly-L-lysine coating; for Cells cell count, Average / Viability, Average: average n=3, 2.2 mM Asp-Gly-Pro; for Cells cell count, 1 / Viability, 1: replicate 1, 2.2 mM Asp-Gly-Pro; for Cells cell count, 2 / Viability, 2: replicate 2, 2.2 mM Asp-Gly-Pro; for Cells cell count, 3 / Viability, 3: replicate 3, 2.2 mM Asp-Gly-Pro. The method, then: Peptides having the sequences of Gly-Glu-Lys (GEK) and Asp-Gly-Pro (DGP) were synthesized to prepare each peptide solution such that the concentration was a concentration at which the cell number increased the most within a range of 0 mM to 5 mM. In other words, Gly-Glu-Lys (GEK) was adjusted to 21 mM, and Asp-Gly-Pro (DGP) was adjusted to 22 mM, and an amount of 1/10 of the total culture medium volume was added to each well immediately before the cell culture test such that final concentrations were 2.1 mM and 2.2 mM, respectively.
Poly-L-lysine (Peptide Institute, Inc., Poly-L-Lysine Hydrochloride, code: 3075) was prepared to 0.1 mg/mL, and 200 μL was dispensed into each well of a 24-well plate, which was left to stand in an incubator at 37° C. for 2 hours. After removing the residual liquid with an aspirator, rinsing was performed with distilled water, irradiation was performed with a UV lamp in a clean bench without a lid, and drying was performed overnight to sterilize. A cell suspension prepared such that CHO-K1 (RIKEN BioResource Research Center, cell number: RCB2330) was at 4×10^4 cells/mL was seeded in a 24-well plate at 500 μL/well and cultured in an incubator at 37° C. and 5% CO2 for 24 hours. As a culture medium, an MEMα culture medium (Gibco) containing 10% FBS was used.
After removing the culture medium from each well and washing with the MEMα culture medium (500 μL), 450 μL of a new MEMα culture medium was dispensed into each well, and each peptide solution (50 μL) was added (total 500 μL/well) to perform culture for 3 days. The cells were recovered to count the cell number. A similar culture test was performed using a system containing neither peptide nor FBS as a comparative sample.
The culture medium in each well was recovered in a 1.5 mL tube to be rinsed with 200 μL of MEMα, and the rinsed liquid was also recovered in the same 1.5 mL tube. Thereafter, 100 μL of trypsin was added and incubated for 3 minutes. After rinsing with 300 μL of MEMα containing 10% FBS, the rinsed liquid was also recovered in the same 1.5 mL tube. After rinsing again with 200 μL of MEMa containing 10% FBS, the rinsed liquid was also recovered in the same 1.5 mL tube.
A centrifugation operation was performed on the cells recovered in the 1.5 mL tube. The centrifugation conditions were 1,000 rpm, 10 minutes, and 4° C.
The supernatant was removed, and 300 μL of Cold PBS (phosphate buffered saline) was added to perform a centrifugation operation under the same conditions. The present operation was repeated twice.
Suspension was carried out with 100 μL of Binding Buffer, and 2 μL of propidium iodide (PI) was added and stirred in the tube to cause a reaction for 15 minutes at room temperature and with light shielding. Thereafter, the viable cell count and the viability were measured with a flow cytometer.
The above preparation, culture, and measurement were performed with n=3. Table 13 and FIG. 13 show the viable cell count in each peptide solution, and Table 14 and FIG. 14 show the cell viability in each peptide solution.

Assay [2] relates to serum-free floating CHO DP-12. The note with it: GEK 2.05 mM, DGP 1.11 mM + medium supplemented with vitamins and the like; for Amount of protein produced: ELISA. For orientation: In an ELISA, binding on a coated surface is turned into a signal by an enzyme label.
Protocol: 5 mL of each of a DMEM/F12 basal medium, a medium supplemented with vitamins and the like (DMEM/F12 basal medium+a component supplemented with vitamins and the like), and each peptide solution was added to each well of a 24-well (Deep well) cassette of Micro-24 Bioreactor System (manufactured by Nihon Pall Corporation) to perform culture overnight under the conditions of 37° C., pH 7, and a stirring speed of 650 rpm. On the next day, pH calibration was performed, and thereafter 2 mL of the cell suspension prepared at 3.5×10^5 cells/mL was added to each well of the 24-well (Deep well) cassette, seeded such that the cell density of the floating cells was 1×10^5 cells/mL (7 mL/well), and cultured in the following evaluation medium under culture conditions of 37° C., pH 7, a stirring speed of 650 rpm, and dissolved oxygen of 30%.
• DMEM/F12 basal medium • Medium supplemented with vitamins and the like (basal medium+component supplemented with vitamins and the like) • GEK (2.05 mM)+medium supplemented with vitamins and the like • DGP (1.11 mM)+medium supplemented with vitamins and the like
As a culture medium, a DMEM/F12 basal medium in which 200 nM of methotrexate, 10 μg/mL of insulin, 5.5 μg/mL of transferrin, 6.7 ng/mL of sodium selenite, 10 μL/mL of Anti-Clumping Agent, and 10 μL/mL of 10% Pluronic F68 were blended in a DMEM/F12 culture medium (Gibco) was used.
After the third day of culture, 200 pμL of the culture medium was recovered in a 1.5 mL tube from each well of the 24-well (Deep well) cassette. 50 μL out of this was put in another 1.5 mL tube, and after adding 50 μL of trypan blue to sufficiently suspend, the viable cell count and the viability were measured using a cell counter (Countess II, manufactured by Life Technologies Corporation).
After the third day of culture, 150 μL out of 200 μL of the culture medium recovered from each well of the 24-well (Deep well) cassette was subjected to a centrifugation operation (5,000 rpm, for 5 minutes) in a 1.5 mL tube, and the supernatant was separately recovered to measure the amount of produced protein by ELISA.

Like-named read-outs stand apart in the source and are kept apart here. Peptide text beside a SMILES is read from it.

With `C[C@H](N)C(=O)NCC(=O)N[C@@H](CCCCN)C(=O)O` [AGK, Ala-Gly-Lys] (H-Ala-Gly-Lys-OH; N-terminus and C-terminus assumed), the “Amount of protein produced” value in assay [1] (Day 3) is recorded as 17.74 mg/L; in assay [1] (Day 4), 31.36 mg/L; in assay [1] (Day 5), 49.43 mg/L; in assay [1] (Day 6), 65.58 mg/L; in assay [1] (Day 7), 73.46 mg/L.
In the case of `NCCCC[C@H](NC(=O)[C@H](CCC(=O)O)NC(=O)CN)C(=O)O` [GEK, Gly-Glu-Lys] (H-Gly-Glu-Lys-OH; N-terminus and C-terminus assumed), in the assay with CHO-K1, the “Cells cell count, Average” value is 19.35 ×10^4; the “Viability, Average” value was 94.5; the “Cells cell count, 1” value is reported as 17.94 ×10^4; the “Viability, 1” value is listed as 94.7. Moreover, in the assay with CHO-K1, the “Cells cell count, 2” value is on record as 19.72 ×10^4; the “Viability, 2” value is recorded as 95.1; the “Cells cell count, 3” value is 20.39 ×10^4; the “Viability, 3” value is reported as 93.8. Besides, the cell number in assay [2] (Day 0) is given as 0.10 ×10^6cells/ml. Moreover, in assay [2] (Day 3), the cell number is 1.73 ×10^6cells/ml and the “Amount of protein produced” value is 26.32 mg/L. For the same molecule, in assay [2] (Day 4), the cell number is 2.40 ×10^6cells/ml and the “Amount of protein produced” value was 54.96 mg/L. Further, in assay [2] (Day 5), the cell number is recorded as 2.65 ×10^6cells/ml and the “Amount of protein produced” value is recorded as 75.54 mg/L. Also, in assay [2] (Day 6), the cell number is reported as 2.64 ×10^6cells/ml and the “Amount of protein produced” value was 98.46 mg/L. For the same molecule, in assay [2] (Day 7), the cell number is listed as 3.05 ×10^6cells/ml and the “Amount of protein produced” value turned out to be 127.08 mg/L.
Take Asp-Gly-Pro [DGP]: in the assay with CHO-K1, the “Cells cell count, Average” value is reported as 11.99 ×10^4; the “Viability, Average” value was determined as 78.5; the “Cells cell count, 1” value is listed as 11.69 ×10^4; the “Viability, 1” value is listed as 77.9. Further, in the assay with CHO-K1, the “Cells cell count, 2” value is on record as 10.47 ×10^4; the “Viability, 2” value amounted to 75.6; the “Cells cell count, 3” value is given as 13.82 ×10^4; the “Viability, 3” value came to 82.0. Also, in assay [2] (Day 0), the Viability is listed as 98.0% and the cell number is on record as 0.10 ×10^6cells/ml. In assay [2] (Day 3), the Viability stood at 97.50%, the cell number is reported as 1.15 ×10^6cells/ml and the “Amount of protein produced” value amounted to 19.86 mg/L. For the same molecule, in assay [2] (Day 4), the Viability worked out at 97.50%, the cell number is on record as 2.52 ×10^6cells/ml and the “Amount of protein produced” value came to 43.99 mg/L. Moreover, in assay [2] (Day 5), the Viability was 94.50%, the cell number was 2.58 ×10^6cells/ml and the “Amount of protein produced” value is 63.65 mg/L. Moreover, in assay [2] (Day 6), the Viability is listed as 87.00%, the cell number was 3.50 ×10^6cells/ml and the “Amount of protein produced” value came to 82.54 mg/L. Moreover, in assay [2] (Day 7), the Viability worked out at 81.50%, the cell number is reported as 3.01 ×10^6cells/ml and the “Amount of protein produced” value worked out at 104.75 mg/L.
Turning to Gly-Pro-Pro [GPP], the “Amount of protein produced” value was found to be 14.95 mg/L in assay [1] (Day 3); 32.30 mg/L in assay [1] (Day 4); 52.53 mg/L in assay [1] (Day 5); 67.01 mg/L in assay [1] (Day 6); 80.86 mg/L in assay [1] (Day 7).

(Values after patent US20240101599A1, “PEPTIDE, CELL GROWTH PROMOTER, PROTEIN PRODUCTION PROMOTER, CULTURE MEDIUM, CELL GROWTH METHOD USING PEPTIDE, AND PROTEIN PRODUCTION METHOD USING PEPTIDE” (Maruhachi Muramatsu, Inc., priority 2020, published 2024).)
